From patent publication US10233182B2, “Substituted spirocyclic inhibitors of autotaxin” (X-Rx, Inc., priority 2014, dated 2019)
Structures can show the parent of a compound that is named as a salt.

Target: Autotaxin (Homo sapiens (Human), UniProt Q13822)
Assay: Autotaxin LPC Cascade Assay
Format: biochemical
Conditions: Autotaxin 5 nM, LPC 100 μM, choline oxidase/HRP/Ampliflu Red fluorescence read-out, 2% DMSO, RT; read-out: IC50 ATX Activity
Outline: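 Choline liberated from LPC by autotaxin during 1 h, after a 10-min RT compound preincubation, was converted through choline oxidase/HRP to a fluorescent Ampliflu Red product.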

Cc1cccc(C(=O)N[C@@H](C(=O)N2CCC3(CC2)C(=O)N(C)CN3c2ccc(Cl)cc2)C(C)C)c1 [Example 193, (R)—N-(1-(1-(4-Chlorophenyl)-3-methyl-4-oxo-1,3,8-triazaspiro[4.5]decan-8-yl)-3-methyl-1-oxobutan-2-yl)-3-methylbenzamide] was tested, and the IC50 was under 500 nM.

For CC(C)[C@@H](NC(=O)c1cc(C(F)(F)F)ccc1F)C(=O)N1CCC2(CC1)C(=O)N(C)C(=O)N2c1ccc(Cl)cc1 [Example 181, (R)—N-(1-(1-(4-Chlorophenyl)-3-methyl-2,4-dioxo-1,3,8-triazaspiro[4.5]decan-8-yl)-3-methyl-1-oxobutan-2-yl)-2-fluoro-5-(trifluoromethyl)benzamide], the IC50 was under 500 nM.

CC(C)[C@@H](NC(=O)c1cc(C(F)(F)F)ccc1F)C(=O)N1CCC2(CC1)C(=O)N(C)C(=O)N2c1ccc(OCC2COC2)cc1 [Example 83, (R)-2-Fluoro-N-(3-methyl-1-(3-methyl-1-(4-(oxetan-3-ylmethoxy)phenyl)-2,4-dioxo-1,3,8-triazaspiro[4.5]decan-8-yl)-1-oxobutan-2-yl)-5-(trifluoromethyl)benzamide] showed an IC50 of under 500 nM.

Compound CC(C)[C@@H](NC(=O)c1cc(C(F)(F)F)ccc1F)C(=O)N1CCC2(CC1)C(=O)N(C)C(=O)N2c1ccc(=O)n(C)c1 [Example 23, (R)-2-Fluoro-N-(3-methyl-1-(3-methyl-1-(1-methyl-6-oxo-1,6-dihydropyridin-3-yl)-2,4-dioxo-1,3,8-triazaspiro[4.5]decan-8-yl)-1-oxobutan-2-yl)-5-(trifluoromethyl)benzamide] has an IC50 of 500 to 1000 nM.

Cc1cc(CN2C(=O)N(C)C(=O)C23CCN(C(=O)[C@H](NC(=O)c2cc(C(F)(F)F)ccc2F)C(C)C)CC3)ccn1 [Example 95, (R)-2-Fluoro-N-(3-methyl-1-(3-methyl-1-((2-methylpyridin-4-yl)methyl)-2,4-dioxo-1,3,8-triazaspiro[4.5]decan-8-yl)-1-oxobutan-2-yl)-5-(trifluoromethyl)benzamide] was tested, and the IC50 was 500 to 1000 nM.

For CN1C(=O)N(c2ccc3[nH]ncc3c2)C2(CCN(C(=O)[C@H](NC(=O)c3cc(C(F)(F)F)ccc3F)C3CCC3)CC2)C1=O [Example 58, (R)—N-(2-(1-(1H-Indazol-5-yl)-3-methyl-2,4-dioxo-1,3,8-triazaspiro[4.5]decan-8-yl)-1-cyclobutyl-2-oxoethyl)-2-fluoro-5-(trifluoromethyl)benzamide], the IC50 was under 500 nM.

CCc1ccc(F)c(C(=O)N[C@@H](C(=O)N2CCC3(CC2)C(=O)N(C)CN3c2ccc(NC(C)=O)cc2)C(C)C)c1 [Example 172, (R)—N-(1-(1-(4-Acetamidophenyl)-3-methyl-4-oxo-1,3,8-triazaspiro[4.5]decan-8-yl)-3-methyl-1-oxobutan-2-yl)-5-ethyl-2-fluorobenzamide] was tested, and the IC50 was under 500 nM.

In the case of CN1C(=O)N(c2ccc3[nH]ncc3c2)C2(CCN(C(=O)C3(NC(=O)c4cc(C(F)(F)F)ccc4F)CC3)CC2)C1=O [Example 71, N-(1-(1-(1H-Indazol-5-yl)-3-methyl-2,4-dioxo-1,3,8-triazaspiro[4.5]decane-8-carbonyl)cyclopropyl)-2-fluoro-5-(trifluoromethyl)benzamide], the IC50 is reported as at least 1000 nM.

Work on CC(C)[C@@H](NC(=O)c1cc(C(F)(F)F)ccc1Cl)C(=O)N1CCC2(CC1)C(=O)N(C)C(=O)N2c1ccc2[nH]ncc2c1 [Example 68, (R)—N-(1-(1-(1H-Indazol-5-yl)-3-methyl-2,4-dioxo-1,3,8-triazaspiro[4.5]decan-8-yl)-3-methyl-1-oxobutan-2-yl)-2-chloro-5-(trifluoromethyl)benzamide] yielded an IC50 of at least 1000 nM.

Compound CC(C)[C@@H](NC(=O)c1cc(OC(F)F)ccc1F)C(=O)N1CCC2(CC1)C(=O)N(C)C(=O)N2c1ccc(C(=O)O)cc1 [Example 166, (R)-4-(8-(2-(5-(Difluoromethoxy)-2-fluorobenzamido)-3-methylbutanoyl)-3-methyl-2,4-dioxo-1,3,8-triazaspiro[4.5]decan-1-yl)benzoic Acid] has an IC50 of under 500 nM.

With CC(C)[C@@H](NC(=O)c1cc(C(F)(F)F)ccc1F)C(=O)N1CCC2(CC1)C(=O)N(C)C(=O)N2[C@@H](C)c1ccccc1 [Example 78, 2-Fluoro-N—((R)-3-methyl-1-(3-methyl-2,4-dioxo-1-((S)-1-phenylethyl)-1,3,8-triazaspiro[4.5]decan-8-yl)-1-oxobutan-2-yl)-5-(trifluoromethyl)benzamide] the IC50 was at least 1000 nM.

Work on CC(C)[C@@H](NC(=O)c1cc(C(F)(F)F)ccc1F)C(=O)N1CCC2(CC1)C(=O)N(C)C(=O)N2Cc1cccc(Cl)c1 [Example 104, (R)—N-(1-(1-(3-Chlorobenzyl)-3-methyl-2,4-dioxo-1,3,8-triazaspiro[4.5]decan-8-yl)-3-methyl-1-oxobutan-2-yl)-2-fluoro-5-(trifluoromethyl)benzamide] yielded an IC50 of under 500 nM.

With CC(C)[C@@H](NC(=O)c1cc(Cl)cc(Cl)c1)C(=O)N1CCC2(CC1)C(=O)N(C)C(=O)N2c1ccccc1 [Example 48, (R)-3,5-Dichloro-N-(3-methyl-1-(3-methyl-2,4-dioxo-1-phenyl-1,3,8-triazaspiro[4.5]decan-8-yl)-1-oxobutan-2-yl)benzamide] the IC50 was under 500 nM.

CCc1ccc(F)c(C(=O)N[C@@H](C(=O)N2CCC3(CC2)C(=O)N(C)[C@H](C)N3c2ccc(C(=O)O)cc2)C(C)C)c1 (single isomer, unassigned) [Example 210] showed an IC50 of under 500 nM.

Compound COc1cccc(N2CN(C)C(=O)C23CCN(C(=O)[C@H](NC(=O)c2cccc(C)c2)C(C)C)CC3)c1 [Example 198, (R)—N-(1-(1-(3-Methoxyphenyl)-3-methyl-4-oxo-1,3,8-triazaspiro[4.5]decan-8-yl)-3-methyl-1-oxobutan-2-yl)-3-methylbenzamide] has an IC50 of under 500 nM.

Work on CC(C)[C@@H](NC(=O)c1cc(C(F)(F)F)ccc1F)C(=O)N1CCC2(CC1)C(=O)N(C)C(=O)N2Cc1ccc(C#N)cc1 [Example 88, (R)—N-(1-(1-(4-Cyanobenzyl)-3-methyl-2,4-dioxo-1,3,8-triazaspiro[4.5]decan-8-yl)-3-methyl-1-oxobutan-2-yl)-2-fluoro-5-(trifluoromethyl)benzamide] yielded an IC50 of under 500 nM.

CC(C)[C@@H](NC(=O)c1cc(C(F)(F)F)ccc1F)C(=O)N1CCC2(CC1)C(=O)N(C)C(=O)N2c1ccc(C(F)(F)F)cc1 [Example 186, (R)-2-Fluoro-N-(3-methy-1-(3-methyl-2,4-dioxo-1-(4-(trifluoromethyl)phenyl)-1,3,8-triazaspiro[4.5]decan-8-yl)-1-oxobutan-2-yl)-5-(trifluoromethyl)benzamide] was tested, and the IC50 was under 500 nM.

Compound CC(C)[C@@H](NC(=O)c1cc(C(F)(F)F)ccc1F)C(=O)N1CCC2(CC1)C(=O)N(C)C(=O)N2Cc1ccc(=O)n(C)c1 [Example 120, (R)-2-Fluoro-N-(3-methyl-1-(3-methyl-1-((1-methyl-6-oxo-1,6-dihydropyridin-3-yl)methyl)-2,4-dioxo-1,3,8-triazaspiro[4.5]decan-8-yl)-1-oxobutan-2-yl)-5-(trifluoromethyl)benzamide] has an IC50 of 500 to 1000 nM.

CCc1ccc(F)c(C(=O)N[C@@H](C(=O)N2CCC3(CC2)C(=O)N(C)CN3c2ccccc2)[C@H](C)OC)c1 [Example 133, 5-Ethyl-2-fluoro-N-((2R,3S)-3-methoxy-1-(3-methyl-4-oxo-1-phenyl-1,3,8-triazaspiro[4.5]decane-8-yl)-1-oxobutan-2-yl)benzamide] was tested, and the IC50 was under 500 nM.

In the case of Cc1cccc(C(=O)N[C@@H](C(=O)N2CCC3(CC2)C(=O)N(C)CN3c2cccc(Br)c2)C(C)C)c1 [Example 194, (R)—N-(1-(1-(3-Bromophenyl)-3-methyl-4-oxo-1,3,8-triazaspiro[4.5]decan-8-yl)-3-methyl-1-oxobutan-2-yl)-3-methylbenzamide], the IC50 is reported as under 500 nM.

CC(C)[C@@H](NC(=O)c1cc(C(F)(F)F)ccc1F)C(=O)N1CCC2(CC1)C(=O)N(C)C(=O)N2Cc1ccc(S(C)(=O)=O)cc1 [Example 93, (R)-2-Fluoro-N-(3-methyl-1-(3-methyl-1-(4-(methylsulfonyl)benzyl)-2,4-dioxo-1,3,8-triazaspiro[4.5]decan-8-yl)-1-oxobutan-2-yl)-5-(trifluoromethyl)benzamide] showed an IC50 of at least 1000 nM.

For CC(C)[C@@H](NC(=O)c1cccc(F)c1)C(=O)N1CCC2(CC1)C(=O)N(C)C(=O)N2c1ccccc1 [Example 2, (R)-3-Fluoro-N-(3-methyl-1-(3-methyl-2,4-dioxo-1-phenyl-1,3,8-triazaspiro[4.5]decan-8-yl)-1-oxobutan-2-yl)benzamide], the IC50 was at least 1000 nM.

In the case of CC(C)[C@@H](NC(=O)c1cc(C(F)(F)F)ccc1F)C(=O)N1CCC2(CC1)C(=O)N(C)C(=O)N2Cc1ccc(Cl)cc1 [Example 99, (R)—N-(1-(1-(4-Chlorobenzyl)-3-methyl-2,4-dioxo-1,3,8-triazaspiro[4.5]decan-8-yl)-3-methyl-1-oxobutan-2-yl)-2-fluoro-5-(trifluoromethyl)benzamide], the IC50 is reported as under 500 nM.

CCc1ccc(F)c(C(=O)N[C@@H](C(=O)N2CCC3(CC2)C(=O)N(C)[C@@H](C)N3c2ccc(C(=O)O)cc2)C(C)C)c1 (single isomer, unassigned) [Example 211] was tested, and the IC50 was under 500 nM.

COc1ccc(CN2C(=O)N(C)C(=O)C23CCN(C(=O)[C@H](NC(=O)c2cc(C(F)(F)F)ccc2F)C(C)C)CC3)c(F)c1 [Example 108, (R)-2-Fluoro-N-(1-(1-(2-fluoro-4-methoxybenzyl)-3-methyl-2,4-dioxo-1,3,8-triazaspiro[4.5]decan-8-yl)-3-methyl-1-oxobutan-2-yl)-5-(trifluoromethyl)benzamide] showed an IC50 of under 500 nM.

In the case of CC(C)[C@@H](NC(=O)c1cc(C(F)(F)F)ccc1F)C(=O)N1CCC2(CC1)C(=O)N(C)C(=O)N2c1ccc(NC2CNC2)cc1 [Example 86, (R)—N-(1-(1-(4-(Azetidin-3-ylamino)phenyl)-3-methyl-2,4-dioxo-1,3,8-triazaspiro[4.5]decan-8-yl)-3-methyl-1-oxobutan-2-yl)-2-fluoro-5-(trifluoromethyl)benzamide trifluoroacetic Acid Salt], the IC50 is reported as at least 1000 nM.

CC(C)[C@@H](NC(=O)c1cc(Cl)ccc1Cl)C(=O)N1CCC2(CC1)C(=O)N(C)C(=O)N2c1ccccc1 [Example 36, (R)-2,5-Dichloro-N-(3-methyl-1-(3-methyl-2,4-dioxo-1-phenyl-1,3,8-triazaspiro[4.5]decan-8-yl)-1-oxobutan-2-yl)benzamide] showed an IC50 of at least 1000 nM.
